For the experiment, the target named is MTH1 (Homo sapiens, UniProt P36639). The experiment can be described thus: MTH1 enzymatic assay and IC50 value determination (malachite green, 96- and 384-well format). To be noted: hydrolysis of dGTP (100 μM), MTH1 6 nM, pyrophosphatase-coupled malachite green, 15 minutes at 22° C. The format is biochemical. As to the method: MTH1 Enzymatic Assay and IC50 Value Determination
MTH1 catalyzes the hydrolysis of dGTP to dGMP and PPi. By coupling the reaction to pyrophosphatase added in excess PPi is converted to Pi that can be detected by using the malachite green assay reagent. Two different formats were used for IC50 determinations in the enzymatic assay, 96- and 384-well format. 96-Well Method:
Briefly, the compound to be analyzed is diluted in DMSO in a 1:3 dilution series generating 12 different compound concentrations giving a final DMSO concentration of 1% in the assay well. MTH1 diluted in assay buffer (100 mM Tris-acetate, 40 mM NaCl, 10 mM magnesium acetate, 1 mM DTT and 0.005% Tween 20) fortified with E. coli pyrophosphatase (0.2 U/ml) is added to a final concentration of 6 nM. dGTP diluted in assay buffer is added to a final concentration of 100 μM. The reaction mixture is incubated for 15 minutes at 22° C. To 100 μl reaction mixture, 25 μl Malachite green assay regent (0.095% Malachite green in 17% H2SO4, 1.5% Ammonium molybdate, 0.17% Tween 20) is added, followed by incubation with shaking for 15 minutes at 22° C. The absorbance of the assay plate is read at 630 nm using a Hidex Sense Multilabel plate reader. The IC50 value is determined by fitting a dose response curve to the data points using nonlinear regression analysis and the equation Y=Bottom+(Top−Bottom)/(1+10^((Log IC50−X)*HillSlope)), where Y is the read absorbance at 630 nm and X is log [compound].
The compounds to be tested are nano-dispensed, in 11 concentrations, directly in assay plates, with a final DMSO concentration <1%. The protocol and the reaction mixture are the same as for the 96-well assay, with a total reaction volume of 50 μl/well to which 10 μl of Malachite green reagent is added. All additions to the assay plates are made with multidrop.

SMILES strings stand for the structures.

As for `Cc1ccc(-c2cc(NCCc3ccc(S(N)(=O)=O)cc3)nc(N)n2)o1` [Example 4, 4-(2-{[2-amino-6-(5-methylfuran-2-yl)pyrimidin-4-yl]amino}ethyl)benzene-1-sulfonamide], the 50% inhibitory concentration (IC50) was < 0.2 µM.

In the case of `Cc1cccc(-c2cc(NCCNc3ccc(C(N)=O)cn3)nc(N)n2)c1C` [Example 5, 6-[(2-{[2-amino-6-(2,3-dimethylphenyl)pyrimidin-4-yl]amino}ethyl)amino]pyridine-3-carboxamide], the half-maximal inhibitory concentration (IC50) is < 0.2 µM. As to `CSc1ccc(NC(=O)NCCCCNc2cc(-c3cccc(Cl)c3Cl)nc(N)n2)cc1` [Example 6, 3-(4-{[2-amino-6-(2,3-dichlorophenyl)pyrimidin-4-yl]amino}butyl)-1-[4-(methylsulfanyl)phenyl]urea], the half-maximal inhibitory concentration (IC50) was < 0.2 µM. Turning to `C[S+]([O-])c1ccc(NC(=O)NCCCCNc2cc(-c3cccc(Cl)c3Cl)nc(N)n2)cc1` (centres unmarked) [Example 7, 3-(4-{[2-amino-6-(2,3-dichlorophenyl)pyrimidin-4-yl]amino}butyl)-1-(4-methanesulfinylphenyl)urea], the IC50 was < 0.2 µM. Under `Cc1cc(-c2cc(NCCNc3ccc([N+](=O)[O-])cn3)nc(N)n2)c(C)cc1F` [Example 8, 6-(4-fluoro-2,5-dimethylphenyl)-4-N-{2-[(5-nitropyridin-2-yl)amino]ethyl}pyrimidine-2,4-diamine] stands < 0.2 µM.

In the case of `Cc1c(Cl)cccc1-c1cc(NCCc2ccc(C(=O)O)cc2)nc(N)n1` [Example 9, 4-(2-{[2-amino-6-(3-chloro-2-methylphenyl)pyrimidin-4-yl]amino}ethyl)benzoic acid], the half-inhibitory concentration (IC50) was < 0.2 µM. With `CC(=O)c1sccc1-c1cc(NCCc2ccc(S(N)(=O)=O)cc2)nc(N)n1` [Example 10, 4-(2-{[6-(2-acetylthiophen-3-yl)-2-aminopyrimidin-4-yl]amino}ethyl)benzene-1-sulfonamide] the figure was < 0.2 µM; with `CC(=O)Nc1ccc(NCCNc2cc(-c3cc(C)c(F)cc3C)nc(N)n2)nc1` [Example 11, N-{6-[(2-{[2-amino-6-(4-fluoro-2,5-dimethylphenyl)pyrimidin-4-yl]amino}ethyl)amino]pyridin-3-yl}acetamide], < 0.2 µM. For the molecule `Cc1cc(-c2cc(NCCNc3ccc(NS(C)(=O)=O)cn3)nc(N)n2)c(C)cc1F` [Example 12, N-{6-[(2-{[2-amino-6-(4-fluoro-2,5-dimethylphenyl)pyrimidin-4-yl]amino}ethyl)amino]pyridin-3-yl}methanesulfonamide], the 50% inhibitory concentration (IC50) was < 0.2 µM.

For `Cc1cccc(-c2cc(NCCNc3cncc(S(N)(=O)=O)c3)nc(N)n2)c1C` [Example 14, 5-[(2-{[2-amino-6-(2,3-dimethylphenyl)pyrimidin-4-yl]amino}ethyl)amino]pyridine-3-sulfonamide], the 50% inhibitory concentration (IC50) is < 0.2 µM. As to `Cc1c(Cl)cccc1-c1cc(N[C@H]2C[C@@H]2c2ccc(S(N)(=O)=O)cc2)nc(N)n1` [Example 15, 4-[(1R,2S)-2-{[2-amino-6-(3-chloro-2-methylphenyl)pyrimidin-4-yl]amino}cyclopropyl]benzene-1-sulfonamide], the concentration for half-maximal inhibition (IC50) was < 0.2 µM.

With `CC(C)(C)OC(=O)NCc1ccc(-c2cc(NCCc3ccc(S(C)(=O)=O)cc3)nc(N)n2)s1` [Example 18, tert-butyl N-{[5-(2-amino-6-{[2-(4-methanesulfonylphenyl)ethyl]amino}pyrimidin-4-yl)thiophen-2-yl]methyl}carbamate], the 50% inhibitory concentration (IC50) is < 0.2 µM. With `Nc1nc(NCCc2ccc(S(N)(=O)=O)cc2)cc(-c2cccc(O)c2)n1` [Example 27, 4-(2-{[2-amino-6-(3-hydroxyphenyl)pyrimidin-4-yl]amino}ethyl)benzene-1-sulfonamide] the figure was < 0.2 µM; with `Nc1nc(NCCc2ccc(S(N)(=O)=O)cc2)cc(-c2cccc(OS(=O)(=O)C(F)(F)F)c2)n1` [Example 33, 3-(2-amino-6-{[2-(4-sulfamoylphenyl)ethyl]amino}pyrimidin-4-yl)phenyl trifluoromethanesulfonate], < 0.2 µM; with `Cc1cccc(-c2cc(NCCc3ccc(C(=O)O)cc3)nc(N)n2)c1C` [Example 34, 4-(2-{[2-amino-6-(2,3-dimethylphenyl)pyrimidin-4-yl]amino}ethyl)benzoic acid], < 0.2 µM. `Nc1nc(NCCNc2ccc3c(c2)NC(=O)CO3)cc(-c2cccc(Cl)c2)n1` [Example 37, 6-[(2-{[2-amino-6-(3-chlorophenyl)pyrimidin-4-yl]amino}ethyl)amino]-3,4-dihydro-2H-1,4-benzoxazin-3-one]: the IC50 was < 0.2 µM. For the molecule `Cc1cccc(-c2cc(NCCNc3nc(N)nc4[nH]cnc34)nc(N)n2)c1C` [Example 45, 4-N-{2-[(2-amino-9H-purin-6-yl)amino]ethyl}-6-(2,3-dimethylphenyl)pyrimidine-2,4-diamine], the half-inhibitory concentration (IC50) was < 0.2 µM. As for `COC(=O)c1cc(C)nc(NCCNc2cc(-c3cccc(C)c3C)nc(N)n2)n1` [Example 50, methyl 2-[(2-{[2-amino-6-(2,3-dimethylphenyl)pyrimidin-4-yl]amino}ethyl)amino]-6-methylpyrimidine-4-carboxylate], the IC50 was < 0.2 µM. With `Cc1cccc(-c2cc(NCCNc3ncnc4[nH]cnc34)nc(N)n2)c1C` [Example 51, 6-(2,3-dimethylphenyl)-4-N-{2-[(9H-purin-6-yl)amino]ethyl}pyrimidine-2,4-diamine], the IC50 is < 0.2 µM. Take `Cc1cc(Cl)c(Cl)cc1-c1cc(NCCc2ccc(S(N)(=O)=O)cc2)nc(N)n1` [Example 67, 4-(2-{[2-amino-6-(4,5-dichloro-2-methylphenyl)pyrimidin-4-yl]amino}ethyl)benzene-1-sulfonamide]: the IC50 is < 0.2 µM. As for `COc1cc(C)c(-c2cc(NCCc3ccc(S(N)(=O)=O)cc3)nc(N)n2)cc1Cl` [Example 68, 4-(2-{[2-amino-6-(5-chloro-4-methoxy-2-methylphenyl)pyrimidin-4-yl]amino}ethyl)benzene-1-sulfonamide], the half-maximal inhibitory concentration (IC50) was < 0.2 µM. As for `Nc1nc(NCCc2ccc(S(N)(=O)=O)cc2)cc(-c2cccc3[nH]ccc23)n1` [Example 69, 4-(2-{[2-amino-6-(1H-indol-4-yl)pyrimidin-4-yl]amino}ethyl)benzene-1-sulfonamide], the IC50 was < 0.2 µM. Turning to `Cc1ccc(F)cc1-c1cc(NCCc2ccc(S(N)(=O)=O)cc2)nc(N)n1` [Example 71, 4-(2-{[2-amino-6-(5-fluoro-2-methylphenyl)pyrimidin-4-yl]amino}ethyl)benzene-1-sulfonamide], the half-inhibitory concentration (IC50) was < 0.2 µM. On to `NC(=O)c1ccc(CCNc2cc(-c3cccc(Cl)c3F)nc(N)n2)cc1` [Example 80, 4-(2-{[2-amino-6-(3-chloro-2-fluorophenyl)pyrimidin-4-yl]amino}ethyl)benzamide], for which the concentration for half-maximal inhibition (IC50) was < 0.2 µM. On to `Cc1c(Cl)cccc1-c1cc(NCCc2cccc(C(N)=O)c2)nc(N)n1` [Example 88, 3-[2-[[2-amino-6-(3-chloro-2-methyl-phenyl)pyrimidin-4-yl]amino]ethyl]benzamide], for which the IC50 is < 0.2 µM. For `CN1C(=O)COc2ccc(NCCNc3cc(-c4cccc(Cl)c4Cl)nc(N)n3)cc21` [Example 94, 6-[2-[[2-amino-6-(2,3-dichlorophenyl)pyrimidin-4-yl]amino]ethylamino]-4-methyl-1,4-benzoxazin-3-one], the IC50 was < 0.2 µM.

Take `Nc1nc(NCCc2ccc(S(N)(=O)=O)cc2)cc(-c2ccc(Cl)c(Cl)c2Cl)n1` [Example 98, 4-[2-[[2-amino-6-(2,3,4-trichlorophenyl)pyrimidin-4-yl]amino]ethyl]benzenesulfonamide]: the half-maximal inhibitory concentration (IC50) is < 0.2 µM. As for `COc1c(Cl)ccc(-c2cc(NCCc3ccc(S(N)(=O)=O)cc3)nc(N)n2)c1Cl` [Example 99, 4-[2-[[2-amino-6-(2,4-dichloro-3-methoxy-phenyl)pyrimidin-4-yl]amino]ethyl]benzenesulfonamide], the IC50 is < 0.2 µM. Take `Cc1c(Cl)cccc1-c1cc(NCCn2c([N+](=O)[O-])cnc2C)nc(N)n1` [Example 100, 6-(3-chloro-2-methyl-phenyl)-N4-[2-(2-methyl-5-nitro-imidazol-1-yl)ethyl]pyrimidine-2,4-diamine]: the IC50 is < 0.2 µM. On to `Nc1nc(NCCc2ccc(S(N)(=O)=O)cc2)cc(-c2csc3ccccc23)n1` [Example 102, 4-[2-[[2-amino-6-(benzothiophen-3-yl)pyrimidin-4-yl]amino]ethyl]benzenesulfonamide], for which the IC50 was < 0.2 µM.

Regarding `Cc1c(Cl)cccc1-c1cc(NCCc2ccc(C(=N)N)cc2)nc(N)n1` [Example 125, 4-[2-[[2-amino-6-(3-chloro-2-methyl-phenyl)pyrimidin-4-yl]amino]ethyl]benzamidine], the IC50 was < 0.2 µM. For the molecule `CC(C)(C)OC(=O)N1CC=C(c2cc(NCCc3ccc(S(C)(=O)=O)cc3)nc(N)n2)CC1` [Example 129, tert-butyl 4-(2-amino-6-{[2-(4-methanesulfonylphenyl)ethyl]amino}pyrimidin-4-yl)-1,2,3,6-tetrahydropyridine-1-carboxylate], the IC50 is < 0.2 µM.

By IC50 is commonly meant the concentration at which inhibition is half-maximal. A low value points to greater potency.

Source of the values: patent US10179790B2 (THOMAS HELLEDAYS STIFTELSE FOR MEDICINSK FORSKNING, priority 2014, dated 2019).
